Laboratory results: patent US8044089B2, “3-3-di-substituted-oxindoles as inhibitors of translation initiation” (President and Fellows of Harvard College, priority 2004, dated 2011)

Assays:
[1] = system: intracellular Ca^2+ stores; assay: Ca2+ release from intracellular stores (FURA-2AM loaded cells); format: cell-based; design: key to Ca^2+ (Ca^2+ release from intracellular stores): a “+” denotes release; a “+/−” denotes inconclusive
In short: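 Ca2+ release scored in FURA-2AM loaded cells as "+" (release) or "+/−" (inconclusive); some compounds also tested with ER-targeted FRET Ca2+ sensors. Ca2+-depleting compounds were then tested for eIF2α phosphorylation by Western blot with phospho-specific anti-eIF2α antibody.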

eIF2α = eIF2α phosphorylation measured by Western blot; format: cell-based; details: for eIF2α-P (phosphorylation of eIF2α measured by Western blot): unit or reference not given
Excerpt: As a non-limiting example, compounds 1272 and 1273 (set forth in Table 1) were synthesized starting from 3-bromoaniline, which upon condensation with hydroxylamine and chloral hydrate followed by concentrated sulfuric acid yielded an inseparable regioisomeric mixture of 4- and 6-bromo isatins. The addition of the two phenyl groups to the three position of the oxindole allowed easy chromatographic separation of the 4- and 6-bromo-3,3-diphenyloxindoles 1272 and 1273. Table 1 sets forth biological data for diaryloxindole compounds including, but not limited to 1272 and 1273. For Tables 1-14, Ca^2+ refers to Ca^2+ release from intracellular stores where a “+” denotes release and a “+/−” denotes inconclusive; eIF2α-P refers to phosphorylation of eIF2α measured by Western blot; SRB refers to the inhibitory concentration to reduce cell growth by 50% (IC50) for growth inhibition of A549 lung cancer cells; and n.d. is not determined.
Without intending to be bound by theory, the mechanism of action of translation initiation inhibitors is set forth in FIG. 1, and includes the depletion (complete or partial depletion) of intracellular calcium (Ca^2+) stores and phosphorylation of eIF2α. Compounds synthesized using the approaches described herein were screened for their ability to partially deplete intracellular Ca^2+ stores using FURA-2AM loaded cells (Benzaquen et al. (1995) Nature Medicine, 1:534, incorporated herein by reference in its entirety for all purposes). A limited subset of compounds were further screened for their ability to deplete endoplasmic reticulum (ER) Ca^2+. The Ca^2+ content of the ER was monitored using ER-targeted, Ca^2+ sensitive, recombinant proteins. These recombinant proteins emitted light by fluorescent resonance energy transfer (FRET) as a function of the Ca^2+ content of the medium. Such assays are previously described (Miyawaki, A.; Mizuno, H.; Llopis, J.; Tsien, R. Y.; Jalink, K. Cameleons as cytosolic and intra-organellar calcium probes, Oxford University Press: Oxford, London, 2001; pp 3-16, incorporated herein by reference in its entirety for all purposes). Compounds that depleted Ca^2+ were further evaluated for their ability to phosphorylate eIF2α. eIF2α phosphorylation was measured by Western blot analysis using the phospho-specific anti-eIF2α antibody, as previously described (Aktas et al. (1998) Proc. Natl. Acad. Sci. USA, 95:8280, incorporated herein by reference in its entirety for all purposes).

A549 lung cancer cells = assay: SRB growth inhibition of A549 lung cancer cells; format: cell-based, human; details: for IC50: A549 lung cancer cells, unit inferred, read-out: SRB (IC50 for growth inhibition of A549 lung cancer cells)

SMILES | Ca^2+ (Ca^2+ release from intracellular stores) [1] | eIF2α-P (phosphorylation of eIF2α measured by Western blot) (eIF2α) | IC50 (A549 lung cancer cells) [µM] | eIF2α phosphorylation (in words) (eIF2α) | growth inhibition of cancer cells (in words) (A549 lung cancer cells; A549)
CCc1ccc(O)c(C2(c3ccccc3)C(=O)Nc3ccccc32)c1 (centres unmarked) [Compound 1285] | + | 2.96 | 8 | – | –
CCCCCc1ccc(O)c(C2(c3ccccc3)C(=O)Nc3ccccc32)c1 (centres unmarked) [Compound 1286] | + | 8.60 | 3 | – | –
CCCCc1ccc(O)c(C2(c3ccccc3)C(=O)Nc3ccccc32)c1 (centres unmarked) [Compound 1287] | + | 10.08 | 3 | – | –
CCCCCCc1ccc(O)c(C2(c3ccccc3)C(=O)Nc3ccccc32)c1 (centres unmarked) [Compound 1288] | + | 6.28 | 3 | – | –
O=C1Nc2ccccc2C1(c1ccccc1)c1cc(C2CCCC2)ccc1O (centres unmarked) [Compound 1289] | + | 6.49 | 3 | – | –
O=C1Nc2ccccc2C1(c1ccccc1)c1cc(C2CCCCC2)ccc1O (centres unmarked) [Compound 1290] | +/− | 8.60 | 3 | – | –
COc1ccccc1C1(c2ccccc2)C(=O)Nc2ccccc21 (centres unmarked) [Compound 1292] | +/− | 1.04 | 9 | – | –
COc1cccc(C2(c3ccccc3)C(=O)Nc3ccccc32)c1 (centres unmarked) [Compound 1293] | +/− | 1.30 | 14 | – | –
O=C1Nc2ccccc2C1(c1ccccc1)c1ccc(O)cc1 (centres unmarked) [Compound 1295] | + | 1.66 | 16 | – | –
CC(C)Cc1ccc(C2(c3ccccc3)C(=O)Nc3ccccc32)cc1 (centres unmarked) [Compound 1297] | + | 0.7 | 8 | – | –
CCCCc1ccc(C2(c3ccccc3)C(=O)Nc3ccccc32)cc1 (centres unmarked) [Compound 1298] | +/− | 0.45 | 8 | – | –
O=C1Nc2ccccc2C1(c1ccccc1)c1ccc(OCCO)cc1 (centres unmarked) [Compound 1299] | + | 0.71 | 5 | – | –
CC(C)(C)c1ccc(C2(c3ccccc3)C(=O)Nc3ccccc32)cc1 (centres unmarked) [Compound 1349] | + | 1.27 | 8 | – | –
O=C1Nc2ccc(F)cc2C1(c1ccccc1)c1ccccc1 [Compound 1350] | + | 1.16 | 9 | – | –
COC(=O)c1ccc(Cl)c2c1NC(=O)C2(c1ccccc1)c1ccccc1 [Compound 1351] | +/− | 1.35 | > 20 | – | –
COC(=O)c1cccc2c1NC(=O)C2(c1ccccc1)c1ccccc1 [Compound 1354] | + | 1.74 | > 20 | – | –

SMILES | Ca^2+ (Ca^2+ release from intracellular stores) [1] | eIF2α-P (phosphorylation of eIF2α measured by Western blot) (eIF2α) | IC50 (A549 lung cancer cells) [µM] | eIF2α phosphorylation (in words) (eIF2α) | growth inhibition of cancer cells (in words) (A549 lung cancer cells; A549)
Nc1ccc(CCNC(=O)c2ccc(Cl)c3c2NC(=O)C3(c2ccccc2)c2ccccc2)cc1 [Compound 1355] | +/− | 3.80 | 5 | – | –
O=C(O)c1ccc(Cl)c2c1NC(=O)C2(c1ccccc1)c1ccccc1 [Compound 1392] | + | 2.76 | 4 | improved eIF2α phosphorylation | improved growth inhibition of cancer cells
Cc1cc(C2(c3ccccc3)C(=O)Nc3c(C(=O)O)cccc32)c(NC(=O)OCC2c3ccccc3-c3ccccc32)cc1O (centres unmarked) [Compound 1394] | + | 8.21 | 9 | – | –
CC(C)(C)c1ccc(OCC(=O)O)c(C2(c3ccccc3)C(=O)Nc3ccccc32)c1 (centres unmarked) [Compound 1397] | + | 1.46 | 8 | – | –
CC(C)CC(NC(=O)COc1ccc(C(C)(C)C)cc1C1(c2ccccc2)C(=O)Nc2ccccc21)C(=O)NC(CO)Cc1ccccc1 (centres unmarked) [Compound 1400] | + | 3.70 | 3 | – | –
O=C1Nc2c(Cn3ccnc3)ccc(Cl)c2C1(c1ccccc1)c1ccccc1 [Compound 1401] | +/− | 2.56 | > 20 | – | –
COC(=O)COc1ccc(C(C)(C)C)cc1C1(c2ccccc2)C(=O)Nc2ccccc21 (centres unmarked) [Compound 1402] | + | 3.94 | 9 | – | –
Cc1cc(C2(c3ccccc3)C(=O)Nc3ccccc32)c(NS(=O)(=O)Cc2ccccc2)cc1O (centres unmarked) [Compound 1405] | + | 1.84 | 4 | – | –
CC(C)(C)c1ccc(O)c(C2(c3ccccc3)C(=O)Nc3c(C(=O)O)cccc32)c1 (centres unmarked) [Compound 1408] | + | 2.08 | > 20 | – | –
Cc1cc(C2(c3ccccc3)C(=O)Nc3c(C(=O)O)cccc32)c(NS(C)(=O)=O)cc1O (centres unmarked) [Compound 1417] | + | 0.96 | > 20 | – | –
CC(C)(C)c1ccc(O)c(C2(c3ccccc3)C(=O)Nc3c(C(=O)O)ccc(Cl)c32)c1 (centres unmarked) [Compound 1418] | + | 7.47 | 16 | – | –
Cc1cc(C2(c3ccccc3)C(=O)Nc3ccccc32)c(NS(=O)(=O)c2cccc(C(F)(F)F)c2)cc1O (centres unmarked) [Compound 1514] | + | 1.65 | 3 | – | –
Cc1cc(C2(c3ccccc3)C(=O)Nc3ccccc32)c(NS(=O)(=O)c2ccc([N+](=O)[O-])cc2)cc1O (centres unmarked) [Compound 1589] | + | 1 | 5 | – | –
COc1ccc(S(=O)(=O)Nc2cc(O)c(C)cc2C2(c3ccccc3)C(=O)Nc3ccccc32)cc1 (centres unmarked) [Compound 1590] | + | 1.12 | 5 | – | –
Cc1cc(C2(c3ccccc3)C(=O)Nc3ccccc32)c(NS(=O)(=O)c2ccc(Br)cc2)cc1O (centres unmarked) [Compound 1591] | + | 3.30 | 3 | – | –
Cc1cc(C2(c3ccccc3)C(=O)Nc3ccccc32)c(NS(=O)(=O)c2ccc(I)cc2)cc1O (centres unmarked) [Compound 1592] | + | 5.19 | 3 | – | –
